Assay results taken from patent publication US9868772B2 (INDIANA UNIVERSITY RESEARCH AND TECHNOLOGY CORPORATION, priority 2012, dated 2018).
Numbered stars: 1 amine (or outer) side, 2 acyl side, 3 side chain; on linkers, the order of the positions; unused ones are H or OH. Square brackets hold non-standard residues; d marks the D form. Side chains are listed from the residue outwards. Peptide text beside a SMILES is read from it. * marks the point of attachment. γGlu = O=C(O)[C@H](CCC(=O)[*:2])N[*:1]; Palmitoyl = CCCCCCCCCCCCCCCC(=O)*; 2Thi = N[C@@H](Cc1cccs1)C(=O)O

Legend:
Test in all cases: cAMP induction, firefly luciferase reporter assay in HEK293 cells co-transfected with receptor
Assay type in all cases: cell-based
[1] = molecular target: T1, GIP receptor (Homo sapiens, UniProt P48546)
T1 construct: expressed in transfected cells; host or cells: HEK293
T1 sequence (P48546 22-466): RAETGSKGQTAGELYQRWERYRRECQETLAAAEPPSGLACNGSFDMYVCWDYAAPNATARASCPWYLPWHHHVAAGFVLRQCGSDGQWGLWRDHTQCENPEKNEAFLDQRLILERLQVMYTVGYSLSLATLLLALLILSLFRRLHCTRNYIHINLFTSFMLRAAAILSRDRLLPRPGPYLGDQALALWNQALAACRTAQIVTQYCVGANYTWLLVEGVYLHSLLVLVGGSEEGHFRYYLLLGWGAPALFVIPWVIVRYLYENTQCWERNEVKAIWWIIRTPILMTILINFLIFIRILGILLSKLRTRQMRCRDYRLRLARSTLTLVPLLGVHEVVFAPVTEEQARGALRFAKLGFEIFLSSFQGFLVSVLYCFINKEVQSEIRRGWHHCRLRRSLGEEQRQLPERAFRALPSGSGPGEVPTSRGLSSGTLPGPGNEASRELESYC
Description: (§1) The ability of glucagon analogs to induce cAMP was measured in a firefly luciferase-based reporter assay. […] At the end of the incubation 100 microliters of LucLite luminescence substrate reagent (Perkin-Elmer, Wellesley, Mass.) were added to each well. […] Effective 50% concentrations were calculated by using Origin software (OriginLab, Northampton, Mass.

[2] = molecular target: T2, GLP-1 receptor (Homo sapiens, UniProt P43220)
T2 construct: expressed in transfected cells; host or cells: HEK293
Description: as §1

[3] = molecular target: T3, glucagon receptor (Homo sapiens, UniProt P47871)
T3 construct: expressed in transfected cells; host or cells: HEK293
Description: as §1

[4] = Table 1, analogs of SEQ ID NO: 37
[5] = Table 2, analogs of SEQ ID NO: 10
[6] = Table 3, analogs of SEQ ID NO: 12

T2 sequence (P43220 24-463): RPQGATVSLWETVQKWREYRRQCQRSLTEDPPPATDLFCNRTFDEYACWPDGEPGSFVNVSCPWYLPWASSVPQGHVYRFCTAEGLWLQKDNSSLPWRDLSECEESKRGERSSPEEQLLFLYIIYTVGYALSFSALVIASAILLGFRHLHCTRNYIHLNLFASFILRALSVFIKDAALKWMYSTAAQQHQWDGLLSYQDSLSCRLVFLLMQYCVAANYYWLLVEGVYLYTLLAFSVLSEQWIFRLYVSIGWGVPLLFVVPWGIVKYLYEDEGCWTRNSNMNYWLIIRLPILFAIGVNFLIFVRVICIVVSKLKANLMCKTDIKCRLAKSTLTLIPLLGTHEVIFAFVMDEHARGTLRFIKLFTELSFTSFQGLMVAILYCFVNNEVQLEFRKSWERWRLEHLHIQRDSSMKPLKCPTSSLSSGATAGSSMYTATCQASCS
T3 sequence (P47871 26-477): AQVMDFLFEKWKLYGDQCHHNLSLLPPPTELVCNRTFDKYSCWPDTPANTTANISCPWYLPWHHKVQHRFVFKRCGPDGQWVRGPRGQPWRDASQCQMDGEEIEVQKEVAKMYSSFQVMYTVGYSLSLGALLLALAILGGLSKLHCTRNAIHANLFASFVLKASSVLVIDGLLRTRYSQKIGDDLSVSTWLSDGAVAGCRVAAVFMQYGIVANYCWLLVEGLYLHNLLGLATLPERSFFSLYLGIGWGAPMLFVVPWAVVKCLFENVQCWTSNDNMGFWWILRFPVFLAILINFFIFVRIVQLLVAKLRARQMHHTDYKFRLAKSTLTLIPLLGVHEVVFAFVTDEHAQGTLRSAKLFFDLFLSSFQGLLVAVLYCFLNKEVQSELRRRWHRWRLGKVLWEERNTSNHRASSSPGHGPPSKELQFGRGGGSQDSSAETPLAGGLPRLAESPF

Work on `CCCCCCCCCCCCCCCC(=O)N[C@@H](CCC(=O)NCCCC[C@H](NC(=O)[C@H](CC(=O)O)NC(=O)[C@H](CO)NC(=O)[C@@H](NC(=O)[C@H](Cc1ccccc1)NC(=O)[C@@H](NC(=O)CNC(=O)[C@H](CCC(N)=O)NC(=O)[C@@H]1CCCN1C(=O)[C@@H](N)Cc1cccs1)[C@@H](C)O)[C@@H](C)O)C(=O)N[C@@H](CO)C(=O)N[C@@H](CCCCN)C(=O)N[C@@H](Cc1ccc(O)cc1)C(=O)N[C@@H](CC(C)C)C(=O)N[C@@H](CC(=O)O)C(=O)N[C@@H](CCC(=O)O)C(=O)N[C@@H](CCCNC(=N)N)C(=O)N[C@@H](C)C(=O)N[C@@H](C)C(=O)N[C@@H](CCC(N)=O)C(=O)N[C@@H](CC(=O)O)C(=O)N[C@@H](Cc1ccccc1)C(=O)N[C@H](C(=O)N[C@@H](CCC(N)=O)C(=O)N[C@@H](Cc1c[nH]c2ccccc12)C(=O)N[C@@H](CC(C)C)C(=O)N[C@@H](CC(C)C)C(=O)N[C@@H](CCC(=O)O)C(=O)NCC(=O)NCC(=O)N1CCC[C@H]1C(=O)N[C@@H](CO)C(=O)N[C@@H](CO)C(=O)NCC(=O)N[C@@H](C)C(=O)N1CCC[C@H]1C(=O)N1CCC[C@H]1C(=O)N1CCC[C@H]1C(=O)N[C@@H](CO)C(N)=O)C(C)C)C(=O)O` [compound 33] (H-[2Thi]PQGTFTSDK([γGlu-Palmitoyl])SKYLDERAAQDFVQWLLEGGPSSGAPPPS-NH2) yielded an EC50 [1, 4] of 0.43 nM, an EC50 [2, 4] of 0.005 nM and an EC50 [3, 4] of 0.121 nM.
Work on `CCCCCCCCCCCCCCCC(=O)N[C@@H](CCC(=O)NCCCC[C@H](NC(=O)[C@H](CC(=O)O)NC(=O)[C@H](CO)NC(=O)[C@@H](NC(=O)[C@H](Cc1ccccc1)NC(=O)[C@@H](NC(=O)CNC(=O)[C@H](CCC(N)=O)NC(=O)[C@H](C)NC(=O)C(CN)Cc1c[nH]cn1)[C@@H](C)O)[C@@H](C)O)C(=O)N[C@@H](CO)C(=O)N[C@@H](CCCCN)C(=O)N[C@@H](Cc1ccc(O)cc1)C(=O)N[C@@H](CC(C)C)C(=O)N[C@@H](CC(=O)O)C(=O)N[C@@H](CCC(=O)O)C(=O)N[C@@H](CCCNC(=N)N)C(=O)N[C@@H](C)C(=O)N[C@@H](C)C(=O)N[C@@H](CCC(N)=O)C(=O)N[C@@H](CC(=O)O)C(=O)N[C@@H](Cc1ccccc1)C(=O)N[C@H](C(=O)N[C@@H](CCC(N)=O)C(=O)N[C@@H](Cc1c[nH]c2ccccc12)C(=O)N[C@@H](CC(C)C)C(=O)N[C@@H](CC(C)C)C(=O)N[C@@H](CCC(=O)O)C(=O)NCC(=O)NCC(=O)N1CCC[C@H]1C(=O)N[C@@H](CO)C(=O)N[C@@H](CO)C(=O)NCC(=O)N[C@@H](C)C(=O)N1CCC[C@H]1C(=O)N1CCC[C@H]1C(=O)N1CCC[C@H]1C(=O)N[C@@H](CO)C(N)=O)C(C)C)C(=O)O` (stereo partly drawn) [compound 25] yielded an EC50 [1, 4] of 0.064 nM, an EC50 [2, 4] of 0.003 nM and an EC50 [3, 4] of 0.024 nM.
With `CCCCCCCCCCCCCCCC(=O)N[C@@H](CCC(=O)NCCCC[C@H](NC(=O)[C@H](CC(=O)O)NC(=O)[C@H](CO)NC(=O)[C@@H](NC(=O)[C@H](Cc1ccccc1)NC(=O)[C@@H](NC(=O)CNC(=O)[C@H](CCC(=O)O)NC(=O)[C@H](C)NC(=O)[C@@H](Cc1c[nH]cn1)NC(C)=O)[C@@H](C)O)[C@@H](C)O)C(=O)N[C@@H](CO)C(=O)N[C@@H](CCCCN)C(=O)N[C@@H](Cc1ccc(O)cc1)C(=O)N[C@@H](CC(C)C)C(=O)N[C@@H](CC(=O)O)C(=O)N[C@@H](CCC(=O)O)C(=O)N[C@@H](CCCNC(=N)N)C(=O)N[C@@H](C)C(=O)N[C@@H](C)C(=O)N[C@@H](CCC(N)=O)C(=O)N[C@@H](CC(=O)O)C(=O)N[C@@H](Cc1ccccc1)C(=O)N[C@H](C(=O)N[C@@H](CCC(N)=O)C(=O)N[C@@H](Cc1c[nH]c2ccccc12)C(=O)N[C@@H](CC(C)C)C(=O)N[C@@H](CC(C)C)C(=O)N[C@@H](CCC(=O)O)C(=O)N[C@@H](C)C(=O)NCC(=O)N1CCC[C@H]1C(=O)N[C@@H](CO)C(=O)N[C@@H](CO)C(=O)NCC(=O)N[C@@H](C)C(=O)N1CCC[C@H]1C(=O)N1CCC[C@H]1C(=O)N1CCC[C@H]1C(=O)N[C@@H](CO)C(N)=O)C(C)C)C(=O)O` [compound 154] (Ac-[dH]AEGTFTSDK([γGlu-Palmitoyl])SKYLDERAAQDFVQWLLEAGPSSGAPPPS-NH2) the EC50 [1, 5] was 0.024 nM, the EC50 [2, 5] was 0.004 nM and the EC50 [3, 5] was 0.847 nM.
In the case of `CCCCCCCCCCCCCCCC(=O)N[C@@H](CCC(=O)NCCCC[C@H](NC(=O)[C@H](CC(=O)O)NC(=O)[C@H](CO)NC(=O)[C@@H](NC(=O)[C@H](Cc1ccccc1)NC(=O)[C@@H](NC(=O)CNC(=O)[C@H](CCC(N)=O)NC(=O)[C@H](C)NC(=O)[C@@H](Cc1ccc(O)cc1)NC(C)=O)[C@@H](C)O)[C@@H](C)O)C(=O)N[C@@H](CO)C(=O)N[C@@H](CCCCN)C(=O)N[C@@H](Cc1ccc(O)cc1)C(=O)N[C@@H](CC(C)C)C(=O)N[C@@H](CC(=O)O)C(=O)N[C@@H](CCC(=O)O)C(=O)N[C@@H](CCCNC(=N)N)C(=O)N[C@@H](C)C(=O)N[C@@H](C)C(=O)N[C@@H](CCC(N)=O)C(=O)N[C@@H](CC(=O)O)C(=O)N[C@@H](Cc1ccccc1)C(=O)N[C@H](C(=O)N[C@@H](CCC(N)=O)C(=O)N[C@@H](Cc1c[nH]c2ccccc12)C(=O)N[C@@H](CC(C)C)C(=O)N[C@@H](CC(C)C)C(=O)N[C@@H](CC(=O)O)C(=O)N[C@@H](CC(C)C)C(=O)NCC(=O)N1CCC[C@H]1C(=O)N[C@@H](CO)C(=O)N[C@@H](CO)C(=O)NCC(=O)N[C@@H](C)C(=O)N1CCC[C@H]1C(=O)N1CCC[C@H]1C(=O)N1CCC[C@H]1C(=O)N[C@@H](CO)C(N)=O)C(C)C)C(=O)O` [compound 153] (Ac-[dY]AQGTFTSDK([γGlu-Palmitoyl])SKYLDERAAQDFVQWLLDLGPSSGAPPPS-NH2), the EC50 [1, 6] is reported as 0.018 nM, the EC50 [2, 6] is reported as 0.017 nM and the EC50 [3, 6] is reported as 0.021 nM.
With `CCCCCCCCCCCCCCCC(=O)N[C@@H](CCC(=O)NCCCC[C@H](NC(=O)[C@H](CC(=O)O)NC(=O)[C@H](CO)NC(=O)[C@@H](NC(=O)[C@H](Cc1ccccc1)NC(=O)[C@@H](NC(=O)CNC(=O)[C@H](CCC(N)=O)NC(=O)CNC(=O)[C@@H](Cc1ccc(O)cc1)NC(C)=O)[C@@H](C)O)[C@@H](C)O)C(=O)N[C@@H](CO)C(=O)N[C@@H](CCCCN)C(=O)N[C@@H](Cc1ccc(O)cc1)C(=O)N[C@@H](CC(C)C)C(=O)N[C@@H](CC(=O)O)C(=O)N[C@@H](CCC(=O)O)C(=O)N[C@@H](CCCNC(=N)N)C(=O)N[C@@H](C)C(=O)N[C@@H](C)C(=O)N[C@@H](CCC(N)=O)C(=O)N[C@@H](CC(=O)O)C(=O)N[C@@H](Cc1ccccc1)C(=O)N[C@H](C(=O)N[C@@H](CCC(N)=O)C(=O)N[C@@H](Cc1c[nH]c2ccccc12)C(=O)N[C@@H](CC(C)C)C(=O)N[C@@H](CC(C)C)C(=O)N[C@@H](CCC(=O)O)C(=O)NCC(=O)NCC(=O)N1CCC[C@H]1C(=O)N[C@@H](CO)C(=O)N[C@@H](CO)C(=O)NCC(=O)N[C@@H](C)C(=O)N1CCC[C@H]1C(=O)N1CCC[C@H]1C(=O)N1CCC[C@H]1C(=O)N[C@@H](CO)C(N)=O)C(C)C)C(=O)O` [compound 14] (Ac-[dY]GQGTFTSDK([γGlu-Palmitoyl])SKYLDERAAQDFVQWLLEGGPSSGAPPPS-NH2) the EC50 [1, 4] was 0.005 nM, the EC50 [2, 4] was 0.022 nM and the EC50 [3, 4] was 0.005 nM.
